Starred links: 1 amine or outer side, 2 acyl side, 3 side chain; linkers in the order of their positions; H or OH if unused. Positions of bridges follow the written chain, without caps; N, C: chain ends. Non-standard residues stand in square brackets, D forms with d. Residues, ends and D or L forms follow the SMILES beside them. Chains are numbered I, II in the order given. Actinocin(9to1) = Cc1c2oc3c(C)ccc(C(=O)[*:1])c3nc-2c(C(=O)[*:2])c(N)c1=O; NMeV = CN[C@H](C(=O)O)C(C)C; Sar = CNCC(=O)O
Assays:
NCI-H358 cells = assay: Flow cytometric cell cycle analysis, synchronized NCI-H358; type: cell-based, human; details: NCI-H358, hydroxyurea 250 μM, 18 h
Experimental: The untreated (control) and treated (with test compounds) cells were harvested by trypsinization, washed once with PBS and then fixed in 70% chilled (−20 °C) ethanol for minimum 1 h. After the fixation step, cells were centrifuged for 5 min at 3000 × g at room temperature, and the pellet was suspended in PBS containing 50 μg/ml propidium iodide (Sigma-Aldrich, Dorset, UK; cat. no. P-4170) and 0.5 mg/ml DNase-free ribonuclease (Sigma-Aldrich; cat. no. R-5503). The cells were stained for 1 h in the dark at 4 °C. Cell cycle analysis was performed on the Beckman Coulter (Epics Altra) fluorescence-activated cell sorter (Beckman Coulter UK Ltd, Buckinghamshire, UK). To gate all the events that represent single cells, and not cell doublets or cell clumps, the following analyses were performed on the samples. Cytograms of propidium iodide fluorescence peak signal versus integrated fluorescence or the linear signal were plotted. All data points on the straight line were isolated in a single gate and the gated data was further used for plotting a histogram that represents a complete cell cycle. The total number of events was not allowed to exceed 200 events per s. Data acquisition was stopped after a minimum of 10 000 events had been collected.

tubulin = assay: Cell-free tubulin polymerization assay in vitro; type: biochemical; details: 10 μM; control 19 mOD/min
Experimental: The purified tubulin was obtained commercially (Cytoskeleton Inc., Denver, CO, USA) and the polymerization assays were carried out according to the method described previously.[36] […] The resulting polymerization curves are representative of the three phases of microtubule polymerization, namely nucleation, growth and steady-state equilibrium. Paclitaxel and nocodazole were used in the assay as a known enhancer and inhibitor of tubulin polymerization, respectively. The ability of BPT to inhibit tubulin polymerization in vitro was determined according to the manufacturer's instructions. Briefly, tubulin protein (3 mg/ml) was polymerized in GTP buffer (80 mM PIPES, pH 6.9, 2 mM MgCl2, 0.5 mM EGTA, 10.2% glycerol and 1 mM GTP) in the presence of a range of BPT concentrations at 37 °C in a temperature-regulated Biotech spectrophotometer (Potton, Bedfordshire, UK). The absorbance (at 340 nm) kinetics of 61 cycles for each sample was studied and the readings were recorded at an interval of 1 min.

pBluescript plasmid DNA = assay: EtBr displacement assay; type: binding; details: 1.3 μM EtBr, pH 7.4
Experimental: The assays were performed in a 96-well plate with clear bottom (Costar, Washington, DC, USA). The assay involved the addition of 10 μl of 10 × concentrated stock solution of compounds (dissolved in DMSO and further diluted in EtBr displacement assay buffer) to 90 μl of reaction mixture containing 6 μg of purified pBlueScript DNA and 1.3 μM EtBr in EtBr displacement assay buffer with final pH 7.4. Equivalent amounts of DMSO were added to the vehicle controls. In addition to control samples (DNA+EtBr), test samples (DNA+EtBr+test compounds), blank 1 (EtBr only), blank 2 (DNA only), wells containing DNA and compound were also prepared to test any change in the background fluorescence readings. The reduction in relative fluorescence counts was monitored ([…]) and recorded after 1 min equilibration time. Fascaplysin and actinomycin D, which are known to intercalate d-s DNA, were used as standard compounds in assay. The mean control and test readings were corrected by subtracting blank readings. The percentage fluorescence in the test samples in reaction with control samples was calculated by using following formula: […]

Row | Structure (SMILES) | Vmax of tubulin polymerization (tubulin) [mOD/min] | further results
1 | NC(=O)NO [Hydroxyurea, hydroxyurea, reference compound] |  | cells in G0/G1 (NCI-H358 cells): 77%
2 | COC(=O)Nc1nc2ccc(C(=O)c3cccs3)cc2[nH]1 [Nocodazole, nocodazole, reference compound] | 4.5 | 
3 | Cc1c2oc3c(C)ccc(C(=O)N[C@@H]4C(=O)N[C@H](C(C)C)C(=O)N5CCC[C@H]5C(=O)N(C)CC(=O)N(C)[C@@H](C(C)C)C(=O)O[C@@H]4C)c3nc-2c(C(=O)N[C@@H]2C(=O)N[C@H](C(C)C)C(=O)N3CCC[C@H]3C(=O)N(C)CC(=O)N(C)[C@@H](C(C)C)C(=O)O[C@@H]2C)c(N)c1=O [actinomycin D, reference compound] (I: T[dV]P[Sar][NMeV] / II: T[dV]P[Sar][NMeV]; ester I:1-I:C, II:1-II:C; linker I:N-II:N via Actinocin(9to1)) |  | EtBr displacement from DNA (pBluescript plasmid DNA): readily dislodges the bound EtBr
4 | CC(=O)O[C@H]1C(=O)[C@@]2(C)[C@H]([C@H](OC(=O)c3ccccc3)[C@]3(O)C[C@H](OC(=O)[C@H](O)[C@@H](NC(=O)c4ccccc4)c4ccccc4)C(C)=C1C3(C)C)[C@]1(OC(C)=O)CO[C@@H]1C[C@@H]2O [paclitaxel, reference compound] | 61 | 

Source: article PMC4669722, “Antitumour potential of BPT: a dual inhibitor of cdk4 and tubulin polymerization” (Cell Death & Disease, 2015)
